Experiment [1] deals with T1, Tet(X4) (Escherichia coli, UniProt A0A3T0V9Y5). Kind of experiment: FP competitive displacement of probe 6. The note with it: IC50app, Tet(X4) (Polarization), 25 nM 6, 40 nM Tet(X4), 5 mM MgCl2, 1 μM FAD, 100 mM Tris pH 7.0, 0.01% Triton X-100. In kind it is binding. The method, then: A 2× solution containing 80 nM Tet(X4), 2 μM FAD and 10 mM MgCl2 in the assay buffer was dispensed into the first 22 columns of a 384-well black, non-binding microtiter plate (Greiner Bio-One), 12.5 μL per well, using a microplate reagent dispenser. A solution of 2 μM FAD and 10 mM MgCl2 in the assay buffer was dispensed into the remaining columns to serve as a no enzyme control. A 3-fold, 10-point dilution series of substrates and inhibitors was made in DMSO in a V-bottom 96-well plate (Greiner Bio-One) with a highest concentration of 5 mM or 0.5 mM. Into one column was added DMSO with no inhibitor or substrate, to serve as a positive control. Tigecycline was included as a reference on every plate to ensure reproducibility. 0.5 μL of each dilution was transferred in quadruplicate to the 384-well plate containing enzyme solution using a CyBi-Well liquid-handling robot (CyBio). A solution of 50 nM 6 in the assay buffer was then dispensed, with 12.5 μL per well. The plate was briefly centrifuged (1000 rpm), then incubated at ambient temperature for 30 min prior to measuring the FP. Data points were normalised between the positive and negative controls. Normalised % response was plotted as a function of log10([Inhibitor]), and the IC50^app was determined by fitting the data to the equation: Y = Bottom + (top-bottom)/(1 + 10^Log(IC50) − X) × HillSlope in GraphPad Prism 9.4.1, where Y = % response and X = log10([Inhibitor]). Wells with unusual fluorescence intensities were manually identified and removed from the analysis. […]

In experiment [2] the target is T1, Tet(X4). Kind of experiment: biochemical. The method, then:
We then tested the binding of reported type 1 TDase inhibitors to Tet(X4) (Fig. 3f, ESI Fig. S17 ^†).[33,38,39] […] We also developed a complementary endpoint activity assay where the turnover of tigecycline by Tet(X4) in a 96-well plate was quenched by addition of 1%v/v formic acid and analysed chromatographically. The peak integrals of tigecycline and its hydroxylated degradation product at 254 nm following UPLC analysis were measured to determine turnover (Fig. 5a).
[…] A 3-fold, 10-point dilution series of the substrates and inhibitors was made in DMSO with a top concentration of 10 mM, unless otherwise stated, and transferred to the enzyme solution using a CyBi-Well liquid-handling robot (CyBio), 1 μL per well. On each plate, a column of no enzyme negative controls and no inhibitor (DMSO only) positive controls were included. The plate was incubated at 30 °C for 15 min. A solution containing 100 mM TAPS (pH 8.5), 40 μM tigecycline and 200 μM NADPH was then dispensed, with 49 μL per well. The plate was incubated at 30 °C for 20 min at 600 rpm. 10 μL of 10%v/v formic acid solution was then dispensed into all wells. Samples were analysed using an ACQUITY H-Class PLUS UPLC instrument (Waters) equipped with a pre-equilibrated ACQUITY BEH C18 column ([…], […], Waters) using a gradient of 1–50%v/v acetonitrile with 0.1%v/v formic acid in water with 0.1%v/v formic acid over 1.83 minutes at a flow rate of 0.5 mL min^−1. Instrument control and data processing were performed using MassLynx V4.1 software. The peaks representing tigecycline and 11a-hydroxy-tigecycline were integrated, used to calculate % conversion and then normalised between positive and negative controls. The normalised % response was plotted as a function of log10[Inhibitor], and the IC50 determined as described above.

Experiment [3] concerns E. coli TOP10 containing plasmid pBAD-TOPO-Tet(X4). Kind of experiment: Broth microdilution MIC and checkerboard assay. The experiment is classed as cell-based, Escherichia coli. Conditions: for MIC: Escherichia coli; for Combination (antibiotic/inhibitor) MIC: inhibitor: inhibitor in combination with tigecycline; for Combination (antibiotic/inhibitor) MIC: inhibitor / Combination (antibiotic/inhibitor) MIC: antibiotic: lowest FICI; for Combination (antibiotic/inhibitor) MIC: antibiotic: tigecycline in combination with the inhibitor; for FICI / Outcome: with tigecycline. From the text: Tet(X4) was sub-cloned from the Tet(X4) pET28b-(+) expression vector via TOPO cloning. The insert was amplified using the taq polymerase with the forward primer 5′- […]-3′ and the reverse primer 5′- […]-3’. Following PCR purification (Thermo Fisher Scientific), the A-tailed PCR product was ligated into the pBAD-TOPO vector using a TOPO cloning kit (Invitrogen) according to the manufacturer's protocol. Following amplification in E. coli NEB5α cells (NEBiolabs), the fidelity of the insert was confirmed by Sanger sequencing (Eurofins). For microbiological experiments, E. coli TOP10 cells were used as the recipient strain. Cells were plated on Mueller-Hinton agar (MHA) plates containing ampicillin at 100 μg mL^−1. The introduction of pBAD-TOPO-Tet(X4) was confirmed by colony PCR. Strains were stored in a freezer at −80 °C in cryopreservation beads.
MIC tests and checkerboard assays were performed in U-bottom, 96-well microtiter plates using a modified broth microdilution protocol following CLSI guidelines. Cation-adjusted Mueller-Hinton Broth (CAMHB) was prepared fresh on the day of testing.[74] […] Bacterial colonies were selected from an overnight culture on MHA plates (supplemented with 0.2%w/vL-arabinose for E. coli TOP10 containing pBAD-TOPO-Tet(X4)) and were suspended in 0.9% saline solution to achieve a 0.5 McFarland standard. A 100 μL aliquot of this suspension was then diluted into 9.9 mL of CAMHB to yield approximately 1.5 × 10^6 cfu mL^−1. 50 μL of the suspension was then added to each well of a microtiter plates. Plates were incubated at 37 °C for 18 h. At least 2 replicates were conducted for each combination. E. coli TOP10 + pBAD-TOPO-Tet(X4) cells were grown in the absence and presence of 0.2%w/vL-arabinose. Analysis of the MIC and checkerboard results were carried out by visual inspection of growth, with and without resazurin dye, an oxidation–reduction indicator.[75] As a measure of synergy, fractional inhibitory concentration index (FICI) was calculated as FICA + FICB, where FICA and FICB are the MICcombination/MICalone for each agent, respectively.[76] Results were interpreted as follows: synergistic (<0.5), indifferent (1.0–4.0) or antagonistic (>4.0).[64] In cases where the MIC exceeded or was below the measured range, the borderline value was taken to calculate the FIC index.
For orientation: Broth dilution looks for growth in wells or tubes with falling amounts of substance.

Setting [4] is: 20 μM tigecycline, 50 nM Tet(X4), 100 μM NADPH, 5 mM MgCl2, 1 μM FAD, 100 mM TAPS pH 8.5, read-out: IC50, UPLC assay.

Where two headings read alike, the source gives them in different places.

As usually defined, the IC50 is the concentration at which inhibition is half-maximal. As to `CCN(CC)CCNC(=O)c1c(C)[nH]c(/C=C2\C(=O)Nc3ccc(F)cc32)c1C` [Sunitinib], the IC50 at Tet(X4) [1] was 45.6 ± 4 µM; at Tet(X4) [2] (IC50, UPLC assay, 20 μM tigecycline, 50 nM Tet(X4), 100 μM NADPH, 5 mM MgCl2, 1 μM FAD, 100 mM TAPS pH 8.5), over 100 µM.

`C=CC(=O)Nc1cccc(Oc2nc(Nc3ccc(N4CCN(C)CC4)cc3)nc3ccsc23)c1` [Olmutinib]: the IC50 on Tet(X4) [1] was 17.2 ± 3.4 µM; on Tet(X4) [2] (setting [4]), over 100 µM.

Turning to `CN(C)CCCN1c2ccccc2Sc2ccc(C(F)(F)F)cc21` [Triflupromazine], the IC50 on Tet(X4) [1] was over 100 µM; at Tet(X4) [2] (IC50, UPLC assay) it was 102 ± 29 µM.

Broadly, the MIC is the lowest concentration found to suppress growth. At Tet(X4) [1], `COc1cc(C)c2c(Oc3cccc(C(F)(F)F)c3)c(OC)cc(NC(C)CCCN)c2n1` (stereo not shown) [Tafenoquine] displayed an IC50 of 94.9 ± 64.8 µM. The IC50 on Tet(X4) [2] (setting [4]) was 76 ± 2.4 µM. The MIC in experiment [3] (read-out: Tet(X) Inhibitor MIC, alone, without L-arabinose induction) was 16 µg/mL. Moreover, the MIC in experiment [3] (read-out: Tet(X) inhibitor MIC, alone, induced with 0.2%w/v L-arabinose) was 16 to 64 µg/mL. Further, in experiment [3] (alone, induced with 0.2%w/v L-arabinose), the “Tet(X) inhibitor MIC” value stood at 16 µg/mL. In experiment [3] (at high concentrations of inhibitor, 0.2%w/v L-arabinose), the “reduction of the tigecycline MIC” value is 2–4 fold. Besides, in experiment [3] (0.2%w/v L-arabinose), the “Combination (antibiotic/inhibitor) MIC: inhibitor” value worked out at 4 µg/mL, the “Combination (antibiotic/inhibitor) MIC: antibiotic” value is 2 µg/mL, the FICI turned out to be 0.8 and the Outcome entry is recorded as “Indifferent (indifferent (0.5–4.0))”. In addition, in experiment [3] (without L-arabinose), the “Combination (antibiotic/inhibitor) MIC: inhibitor” value is 16 µg/mL, the “Combination (antibiotic/inhibitor) MIC: antibiotic” value stood at 0.25 µg/mL, the FICI is 2 and the Outcome result was “indifferent (indifferent (0.5-4.0))”.

Take `CCCCC1C(=O)N(c2ccccc2)N(c2ccccc2)C1=O` [Phenylbutazone]: the IC50 at Tet(X4) [1] and on Tet(X4) [2] (setting [4]) was over 100 µM in each case.

Take `CN(C)CCCN1c2ccccc2Sc2ccccc21` [Promazine]: the IC50 on Tet(X4) [1] and at Tet(X4) [2] (setting [4]) was over 100 µM each time.

Take `O=C(NCc1c(F)cc(F)cc1F)c1cn2c(c(O)c1=O)C(=O)N1[C@H]3CC[C@H](C3)O[C@@H]1C2` [Bictegravir]: the IC50 at Tet(X4) [1] was 54.8 ± 10.6 µM; on Tet(X4) [2] (setting [4]) it was 76 ± 14 µM.

As for `c1ccc2c(c1)Nc1ccccc1S2` [Phenothiazine], the IC50 was over 100 µM at Tet(X4) [1] and 128 ± 13 µM at Tet(X4) [2] (setting [4]).

In the case of `COc1ccc2c(c1)N(C[C@H](C)CN(C)C)c1ccccc1S2` [Levomepromazine], the IC50 at Tet(X4) [1] and on Tet(X4) [2] (setting [4]) was over 100 µM each time.

As for `CN(C)CCCN1c2ccccc2Sc2ccc(Cl)cc21` [Chlorpromazine], the IC50 on Tet(X4) [1] was over 100 µM; on Tet(X4) [2] (setting [4]), 110 ± 19 µM.

In the case of `CC(CN(C)C)CN1c2ccccc2S(=O)(=O)c2ccccc21` (stereo not shown) [Oxomemazine], the IC50 at Tet(X4) [1] and on Tet(X4) [2] (setting [4]) was over 100 µM each time.

Take `O=c1c2ccccc2[se]n1-c1ccccc1` [Ebselen]: the IC50 was determined as 40.9 ± 11.4 µM at Tet(X4) [1] and 4.7 ± 1.5 µM on Tet(X4) [2] (setting [4]).

Take `Cn1cc(C2=C(c3cn(C4CCN(Cc5ccccn5)CC4)c4ccccc34)C(=O)NC2=O)c2ccccc21` [Enzastaurin]: the values for the IC50 on Tet(X4) [1] and at Tet(X4) [2] (setting [4]) were 27.8 ± 1.5 µM and over 100 µM, respectively.

Take `CC(=O)c1ccc2c(c1)N(CCCN1CCN(CCO)CC1)c1ccccc1S2` [Acetophenazine]: the IC50 on Tet(X4) [1] and at Tet(X4) [2] (setting [4]) was over 100 µM each time.

The values are drawn from publication PMC12056667 (Chemical Science, 2025).
